Source: paper PMC8020424, “Characterization of D-xylose reductase, XyrB, from Aspergillus niger” (Biotechnology Reports, 2021)
Where two headings read alike, the source gives them in different places.

System: T1, XyrB
T1 construct: full-length intron-free codon-optimized gene in pET-28a(+), E. coli BL21(DE3)pLysS, HisTrap purified; AKR motif 22-277
Assay: NADPH consumption at […] nm, Michaelis-Menten fit
Format: biochemical, Aspergillus niger
Details: 0.2 mM NADPH, PBS pH 7.0, 25 °C

Km (read-out: D-xylose / Km)	Structure (SMILES)	Km (read-out: Km)
	OC[C@H]1OC(O)[C@H](O)[C@@H](O)[C@H]1O (stereo partly drawn) [D-galactose]	12.5 mM
3.3 mM	OC1OC[C@@H](O)[C@H](O)[C@H]1O (stereo partly drawn) [D-xylose]	
	OC1OC[C@H](O)[C@H](O)[C@H]1O (stereo partly drawn) [L-arabinose]	9.9 mM
